# Reference: patent EP0942911B1, “BENZOPYRANOPYRROLE AND BENZOPYRANOPYRIDINE ALPHA-1 ADRENERGIC COMPOUNDS” (Abbott Laboratories, priority 1996, dated 1998)
# Structures can show the parent of a compound that is named as a salt.
# Experiments:
# [1] = biological target: T1, α-1A adrenoreceptor (Rattus norvegicus, UniProt P43140); assay: cell-based; conditions: phenylephrine-induced contraction, Schild plot; for Kb: read-out: In Vitro Characterization (pA2) Rat Vas (converted)
# T1 sequence (P43140 1-466): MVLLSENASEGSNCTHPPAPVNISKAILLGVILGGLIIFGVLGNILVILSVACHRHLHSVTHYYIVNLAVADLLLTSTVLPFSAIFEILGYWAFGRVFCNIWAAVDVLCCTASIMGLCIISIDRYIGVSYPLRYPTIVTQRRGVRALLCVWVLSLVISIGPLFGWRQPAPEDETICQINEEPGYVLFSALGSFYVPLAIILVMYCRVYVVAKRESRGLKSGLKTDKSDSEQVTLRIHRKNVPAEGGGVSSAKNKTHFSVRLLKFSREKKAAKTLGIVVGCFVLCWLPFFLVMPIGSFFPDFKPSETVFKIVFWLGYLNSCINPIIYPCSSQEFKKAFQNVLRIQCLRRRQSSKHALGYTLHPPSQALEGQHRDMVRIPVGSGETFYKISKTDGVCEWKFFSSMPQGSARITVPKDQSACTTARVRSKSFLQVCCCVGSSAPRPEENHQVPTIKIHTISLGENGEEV
# Description: (§1) Functional assays indicative of pharmacologically defined α-1 adrenoreceptors were used to further characterize compounds. Inhibition of phenylephrine (PE)-induced contraction of canine prostate smooth muscle can be correlated with α-1A adrenoreceptor activation. […] For each of these models, agonist dose response curves were repeated against increasing concentrations of test agent to derive a Schild plot [log ([…]) against log (molarity of test agent)] to determine the pA2.
# [2] = biological target: T2, α-1B adrenoreceptor (Rattus norvegicus, UniProt P15823); assay: cell-based; conditions: phenylephrine-induced contraction, Schild plot; for Kb: read-out: In Vitro Characterization (pA2) Rat Spleen (converted)
# T2 construct: from tissue; host or cells: rat spleen
# T2 sequence (P15823 1-515): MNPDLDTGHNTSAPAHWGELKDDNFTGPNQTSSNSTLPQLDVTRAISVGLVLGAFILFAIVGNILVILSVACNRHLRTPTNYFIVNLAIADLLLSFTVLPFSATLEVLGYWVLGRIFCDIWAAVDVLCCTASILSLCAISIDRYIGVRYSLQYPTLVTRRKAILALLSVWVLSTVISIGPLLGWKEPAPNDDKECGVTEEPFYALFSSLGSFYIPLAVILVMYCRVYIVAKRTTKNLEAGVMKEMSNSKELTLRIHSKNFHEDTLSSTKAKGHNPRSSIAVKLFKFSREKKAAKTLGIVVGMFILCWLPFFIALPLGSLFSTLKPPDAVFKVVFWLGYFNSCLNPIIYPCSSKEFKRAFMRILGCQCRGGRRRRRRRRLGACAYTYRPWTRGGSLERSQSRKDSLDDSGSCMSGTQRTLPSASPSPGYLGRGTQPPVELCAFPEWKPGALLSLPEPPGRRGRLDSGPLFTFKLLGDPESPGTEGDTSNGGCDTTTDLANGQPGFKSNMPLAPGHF
# Description: as §1
structure (smiles),measurement,setting,value
"COc1cccc2c1[C@@H]1CN(CCCCn3c(=O)[nH]c4c(sc5ccc(OC(C)C)nc54)c3=O)C[C@H]1CO2 [Example 51, 3-[4-((3aS,9bR)-trans-9-Methoxy-1,2,3,3a,4,9b-hexahydro-[1]-benzopyrano[3,4-c]pyrrol-2-yl)butyl]-8-isopropoxy-pyrido[2',3':4,5]thieno[3,2-d]pyrimidine-2,4(1H,3H)-dione hydrochloride]",Kb,[1],0.631 nM
same,Kb,[2],33.9 nM
"COc1cnc2sc3c(=O)n(CCCCN4C[C@@H]5COc6cccc(OC)c6[C@@H]5C4)c(=O)[nH]c3c2n1 [Example 31, 3-[4-((3aR,9bR)-cis-9-Methoxy-1,2,3,3a,4,9b-hexahydro-[1]-benzopyrano[3,4-c]pyrrol-2-yl)butyl]-8-methoxy-pyrazino[2',3':4,5]thieno[3,2-d]pyrimidine-2,4(1H,3H)-dione hydrochloride]",Kb,[1],0.229 nM
same,Kb,[2],14.1 nM
"COc1cccc2c1[C@@H]1CN(CCCCn3c(=O)[nH]c4c(sc5ccnc(Cl)c54)c3=O)C[C@@H]1CO2 [Example 48, 3-[4-((3aR,9bR)-cis-9-Methoxy-1,2,3,3a,4,9b-hexahydro-[1]-benzopyrano[3,4-c]pyrrol-2-yl)butyl]-9-chloro-pyrido[3',4';4,5]thieno[3,2-d]pyrimidine-2,4(1H,3H)-dione hydrochloride]",Kb,[2],39.8 nM
"COc1cccc2c1[C@@H]1CN(CCCCn3c(=O)[nH]c4c(sc5nc(C)ccc54)c3=O)C[C@@H]1CO2 [Example 35, 3-[4-((3aR,9bR)-cis-9-Methoxy-1,2,3,3a,4,9b-hexahydro-[1]-benzopyrano[3,4-c]pyrrol-2-yl)butyl]-7-methyl-pyrido[3',2':4,5]thieno[3,2-d]pyrimidine-2,4(1H,3H)-dione hydrochloride]",Kb,[1],1.26 nM
same,Kb,[2],11 nM
"COc1cccc2c1[C@@H]1CN(CCCCn3c(=O)[nH]c4c(sc5c(Cl)nccc54)c3=O)C[C@@H]1CO2 [Example 53, 3-[4-((3aR,9bR)-cis-9-Methoxy-1,2,3,3a,4,9b-hexahydro-[1]-benzopyrano[3,4-c]pyrrol-2-yl)butyl]-6-chloro-pyrido[4',3':4,5]thieno[3,2-d]pyrimidine-2,4(1H,3H)-dione]",Kb,[1],0.49 nM
same,Kb,[2],63.1 nM
"COc1cc2[nH]c(=O)n(CCCCN3C[C@@H]4COc5ccccc5[C@@H]4C3)c(=O)c2cc1OC (racemic) [Example 81, 3-[4-((±1-cis-1,2,3,3a,4,9b-hexahydro-[1]-benzopyrano[3,4-c]pyrrol-2-yl)butyl]-6,7-dimethoxy-quinazoline-2,4(1H,3H)-dione hydrochloride]",Kb,[2],38.9 nM
"O=c1[nH]c2c(sc3cccnc32)c(=O)n1CCCCN1C[C@@H]2COc3ccccc3[C@@H]2C1 (racemic) [Example 70, 3-[4-((±)-cis-1,2,3,3a,4,9b-hexahydro-[1]-benzopyrano[3,4-c]pyrrol-2-yl)butyl]-pyrido[2',3':4,5]thieno[3,2-d]pyrimidine-2,4(1H,3H)-dione dihydrochloride]",Kb,[1],6.31 nM
same,Kb,[2],87.1 nM
"COc1cccc2c1[C@@H]1CN(CCCCn3c(=O)[nH]c4c(sc5nc(-c6ccccc6)cnc54)c3=O)C[C@@H]1CO2 [Example 40, 3-[4-((3aR,9bR)-cis-9-Methoxy-1,2,3,3a,4,9b-hexahydro-[1]-benzopyrano[3,4-c]pyrrol-2-yl)butyl]-7-phenyl-pyrazino[2',3':4,5]thieno[3,2-d]pyrimidine-2,4(1H,3H)-dione hydrochloride]",Kb,[1],3.02 nM
same,Kb,[2],759 nM
"COc1cccc2c1[C@@H]1CN(CCCCn3c(=O)[nH]c4c(sc5ccnc(OC)c54)c3=O)C[C@H]1CO2 [Example 49, 3-[4-((3aS,9bR)-trans-9-Methoxy-1,2,3,3a,4,9b-hexahydro-[1]-benzopyrano[3,4-c]pyrrol-2-yl)butyl]-9-methoxy-pyrido[3',4':4,5]thieno[3,2-d]pyrimidine-2,4(1H,3H)-dione fumarate]",Kb,[2],7.24 nM
"COc1cccc2c1[C@@H]1CN(CCCCn3c(=O)[nH]c4c(sc5cnccc54)c3=O)C[C@@H]1CO2 [Example 29, 3-[4-((3aR,9bR)-cis-9-Methoxy-1,2,3,3a,4,9b-hexahydro-[1]-benzopyrano[3,4-c]pyrrol-2-yl)butyl]-pyrido[4',3':4,5]thieno[3,2-d]pyrimidine-2,4(1H,3H)-dione dihydrochloride]",Kb,[1],0.437 nM
same,Kb,[2],12.3 nM
"COc1cc2nc(N3CCN(C(=O)C4COc5ccccc5O4)CC3)nc(N)c2cc1OC (stereo not drawn) [Doxazosin, doxazosin, reference compound]",In Vitro Characterization (pA2) Rat Vas,[1],8.69
same,In Vitro Characterization (pA2) Rat Spleen,[2],9.51
"COc1cccc2c1[C@@H]1CN(CCCCn3c(=O)[nH]c4c(sc5ccncc54)c3=O)C[C@H]1CO2 [Example 41, 3-[4-((3aS,9bR)-trans-9-Methoxy-1,2,3,3a,4,9b-hexahydro-[1]-benzopyrano[3,4-c]pyrrol-2-yl)butyl]-pyrido[3',4':4,5]thieno[3,2-d]pyrimidine-2,4(1H,3H)-dione dihydrochloride]",Kb,[1],0.355 nM
same,Kb,[2],3.98 nM
"COc1cccc2c1[C@@H]1CN(CCCCn3c(=O)[nH]c4c(sc5ncccc54)c3=O)C[C@H]1CO2 [Example 44, 3-[4-((3aS,9bR)-trans-9-Methoxy-1,2,3,3a,4,9b-hexahydro-[1]-benzopyrano[3,4-c]pyrrol-2-yl)butyl]-pyrido[3',2':4,5]thieno[3,2-d]pyrimidine-2,4(1H,3H)-dione hydrochloride]",Kb,[1],0.11 nM
same,Kb,[2],4.47 nM
"COc1ccc2c(n1)sc1c(=O)n(CCCCN3C[C@H]4COc5cccc(OC)c5[C@@H]4C3)c(=O)[nH]c12 [Example 46, 3-[4-((3aS,9bR)-trans-9-Methoxy-1,2,3,3a,4,9b-hexahydro-[1]-benzopyrano[3,4-c]pyrrol-2-yl)butyl]-7-methoxy-pyrido[3',2':4,5]thieno[3,2-d]pyrimidine-2,4(1H,3H)-dione hydrochloride]",Kb,[1],0.162 nM
same,Kb,[2],7.59 nM
"COc1cccc2c1[C@@H]1CN(CCCCn3c(=O)[nH]c4c(sc5ncccc54)c3=O)C[C@@H]1CO2 [Example 34, 3-[4-((3aR,9bR)-cis-9-Methoxy-1,2,3,3a,4,9b-hexahydro-[1]-benzopyrano[3,4-c]pyrrol-2-yl)butyl]-pyrido[3',2':4,5]thieno[3,2-d]pyrimidine-2,4(1H,3H)-dione hydrochloride]",Kb,[1],0.589 nM
same,Kb,[2],7.59 nM
"COc1cccc2c1[C@@H]1CN(CCCCn3c(=O)[nH]c4c(sc5cc(Cl)cnc54)c3=O)C[C@@H]1CO2 [Example 38, 3-[4-((3aR,9bR)-cis-9-Methoxy-1,2,3,3a,4,9b-hexahydro-[1]-benzopyrano[3,4-c]pyrrol-2-yl)butyl]-7-chloro-pyrido[2',3':4,5]thieno[3,2-d]pyrimidine-2,4(1H,3H)-dione hydrochloride]",Kb,[1],0.282 nM
same,Kb,[2],19.5 nM
"COc1cccc2c1[C@@H]1CN(CCCCn3c(=O)[nH]c4c(sc5c(Cl)nccc54)c3=O)C[C@H]1CO2 [Example 54, 3-[4-((3aS,9bR)-trans-9-Methoxy-1,2,3,3a,4,9b-hexahydro-[1]-benzopyrano[3,4-c]pyrrol-2-yl)butyl]-6-chloro-pyrido[4',3':4,5]thieno[3,2-d]pyrimidine-2,4(1H,3H)-dione]",Kb,[2],49 nM
"COc1cccc2c1[C@@H]1CN(CCCCn3c(=O)[nH]c4c(sc5cnccc54)c3=O)C[C@H]1CO2 [Example 42, 3-[4-((3aS,9bR)-trans-9-Methoxy-1,2,3,3a,4,9b-hexahydro-[1]-benzopyrano[3,4-c]pyrrol-2-yl)butyl]-pyrido[4',3':4,5]thieno[3,2-d]pyrimidine-2,4(1H,3H)-dione dihydrochloride]",Kb,[1],0.257 nM
same,Kb,[2],2.75 nM
"COc1cnc2sc3c(=O)n(CCCCN4CC5COc6cccc(OC)c6[C@@H]5C4)c(=O)[nH]c3c2n1.Cl (stereo in doubt) [Example 43, 3-[4-((3aS,9bR)-trans-9-Methoxy-1,2,3,3a,4,9b-hexahydro-[1]-benzopyrano[3,4-c]pyrrol-2-yl)butyl]-8-methoxy-pyrazino[2',3':4,5]thieno[3,2-d]pyrimidine-2,4(1H,3H)-dione hydrochloride]",In Vitro Characterization (pA2) Rat Spleen,[2],7.66
